For series [1], the target named is T1, human enteropeptidase (Homo sapiens, UniProt P98073).
T1 construct: purchased ITSI-Biosciences, LLC #REN-260
Nature of the series: Human enteropeptidase enzyme assay. It counts as biochemical. As to conditions: for IC50: substrate and compound at room temperature, 95% confidence intervals in parentheses. The procedure:
Human recombinant enteropeptidase (#REN-260, ITSI-Biosciences, LLC) was diluted with an assay buffer (50 mM tricine (pH 8.0), 0.01(w/v)% Tween 20, 10 mM CaCl2) to prepare a 24 mU/mL enzyme solution. Subsequently, 5FAM–Abu–[…]CPQ2)–Lys–Lys–NH2 (purity: 97.2%, CPC Scientific, Inc.) was diluted with an assay buffer to prepare a 2.1 μM substrate solution. Compounds were dissolved in DMSO and then diluted in the assay buffer. The compound solution (5 μL/well) and the substrate solution (5 μL/well) were added to a 384-well black plate (#784076, Greiner Bio-One) and mixed. Then, the enzyme solution (5 μL/well) was added to the plate and mixed to start the reaction. The fluorescence intensity was measured at an excitation wavelength of 485 nm and a fluorescence wavelength of 535 nm using a fluorescence plate reader EnVision (PerkinElmer Inc.). Also, the same reaction as above was performed except that the test compound was not added (test compound non-supplemented group). In addition, the same reaction as above was performed except that neither the test compound nor the enzyme was added (control group).
(§1) Inhibition rate (%) = (1 – (fluorescence intensity of the test compound supplemented group – fluorescence intensity of the control group)/(fluorescence intensity of the test compound non-supplemented group – fluorescence intensity of the control group)) × 100.

Series [2] concerns the target rat enteropeptidase (Rattus norvegicus, UniProt A0ABK0LTS6). Put plainly: Rat enteropeptidase enzyme assay. It counts as biochemical. The procedure: The rat enteropeptidase catalytic subunit (aa 818-1057, GenBank accession no. XM_017597944) was cloned into the BglII-NotI site of the pET32a vector (Millipore). The active rat enteropeptidase catalytic subunit was obtained as described previously.[36] The rat recombinant enteropeptidase was diluted with an assay buffer (50 mM Tricine (pH 8.0), 0.01(w/v)% Tween 20, 10 mM CaCl2) to prepare a 2.4 ng/mL enzyme solution. Subsequently, 5FAM–Abu–[…]CPQ2)–Lys–Lys–NH2 (purity: 97.2%, CPC Scientific, Inc.) was diluted with an assay buffer to prepare a 5.4 μM substrate solution. Compounds were dissolved in DMSO and then diluted in the assay buffer. The compound solution (5 μL/well) and the substrate solution (5 μL/well) were added to a 384-well black plate (#784076, Greiner Bio-One) and mixed. Then, the enzyme solution (5 μL/well) was added to the plate and mixed to start the reaction. The fluorescence intensity was measured at an excitation wavelength of 485 nm and a fluorescence wavelength of 535 nm using a fluorescence plate reader EnVision (PerkinElmer Inc.). […]
as §1

A short description of series [3]: Aqueous stability at pH 1.2/6.8. It counts as physicochemical. As to conditions: 24 h; for stability at pH 1.2 (% decomposed): pH 1.2, 37 °C; for stability at pH 6.8 (% decomposed): pH 6.8, 37 °C. The procedure: Sample solutions in pH 1.2/6.8 media (first/second fluids for the disintegration test in the Japanese Pharmacopoeia 17th edition, including 10% dimethyl sulfoxide if needed, 10 μg/mL) were prepared for the compounds and incubated at 37 °C. The sample solutions were measured initially and at 24 h using HPLC, and peak analysis was conducted. Residual contents (%) of the compounds in pH 1.2/6.8 media at 37 °C after 24 h of incubation of the initial solutions were calculated using the peak areas.

In series [4] the test system is DIO rats. Put plainly: Anti-obesity effects in male DIO rats (repeated dosing, 4 weeks). Conditions: oral, 6b 1, 3 and 10 mg/kg; for body weight change / food intake: (S)-5b 10 mg/kg; for fecal protein output: day 28, (S)-5b 10 mg/kg. It counts as in vivo, rat. The procedure: Six-week-old male DIO F344/Jcl rats were obtained from CLEA Japan (Tokyo, Japan) and fed with a HFD D12451 (45 kcal % fat, 20 kcal % protein, and 35 kcal % carbohydrate; Research Diets, Inc.). The study involved six groups of rats (n = 6): vehicle (0.5% MC), 6b (1, 3, and 10 mg/kg), (S)-5b (SCO-792) (10 mg/kg), and sibutramine (1 mg/kg). […] were orally administered with either the vehicle or compounds starting at 36 weeks of age for 4 weeks. The body weight was monitored every 1–4 days for 4 weeks. The change in body weight is presented as a percentage of the initial body weight. Feces were collected on day 28 and evaluated for pharmacodynamic markers.

The test system of series [5] is Human Multi-drug Resistance 1 (MDR-1) Expressing Cells. Put plainly: Membrane permeability with MDR1-expressing cells (A to B). As to conditions: apical to basolateral, 10 μmol/L, 2 h. It counts as in vitro ADME. The method, then:
The transcellular transport study was performed as reported previously.[40] In brief, the cells were grown in a HTS transwell 96 well permeable support (pore size 0.4 μm, 0.143 cm^2 surface area) with a polyethylene terephthalate membrane (Corning Life Sciences, Lowell, MA, USA) at a density of 1.125 × 10^5 cells/well. The cells were preincubated with M199 at 37 °C for 30 min. Subsequently, transcellular transport was initiated by the addition of M199 to apical compartments containing 10 μmol/L test compounds and terminated by the removal of each assay plate after 2 h. The aliquots in the opposite compartments were subjected to be measured for compound concentration by LC–MS/MS. Permeability was calculated using the permeated compound concentration.

The nature of series [6]: Pharmacokinetics in rats. It counts as in vivo, rat. The procedure: […] After administration, blood samples were collected and centrifuged to obtain plasma specimens. The compound concentrations in the plasma were measured using LC–MS/MS.
In series [7] the test system is High-Fat-Diet-Fed Mice. Nature of the series: Increase in fecal protein output in high-fat-diet-fed mice. It counts as in vivo, mouse. Conditions: for fecal protein output (fold of 2a): oral. The procedure: A high-fat diet (HFD)-fed mouse (D12079B diet, male, 14–21 weeks old) was used for the in vivo assay. For compound screening, mice were orally administered with either the test compound (10 mg/kg) or 0.5% methylcellulose (MC) as a vehicle control. For the assessment of efficacy by systemic exposure of the compound, mice were subcutaneously administered with compound 2a (10 mg/kg) or saline as a vehicle control and compared with those administered oral treatment (60 mg/kg). Doses were selected to achieve equivalent systemic exposure as the area under the curve over 24 h based on pharmacokinetic data of both oral and subcutaneous administration. Whole feces were collected overnight, and the fecal protein output was evaluated as described previously.[33]

The test system of series [8] is enteropeptidase. Also on record: method as in PMID 33033171. Conditions: cited from earlier work.
Series [9] concerns DIO mice. As to conditions: cited from earlier work.
Series [10] is described as follows: PAMPA (parallel artificial membrane permeability assay). It counts as in vitro ADME. As to conditions: PAMPA. For orientation: The PAMPA barrier holds no transporters, so it reflects passive diffusion.
Series [11] addresses T1, human enteropeptidase. Put plainly: Dissociation assay (recovery of active enzyme after rapid dilution). It counts as biochemical. As to conditions: rapid dilution after 2 h preincubation of compound and enzyme. An excerpt: Although not all reaction constants for 1c could be identified, the in vitro IC50 value could be used as an indicator of the combination of k1, k–1, and k2. In this case, the IC50 value of a compound is derived from its affinity for enteropeptidase (k1 and k–1) and its reactivity against enteropeptidase (k2). […] As the affinity of a compound for enteropeptidase is expected to largely contribute to the IC50 value based on initial velocities (IC50(initial)) relative to the IC50 value based on the steady state (IC50(app)), we performed chemical modifications based on IC50(initial). […] Because T1/2 can be an indicator of k3, we focused on compounds with low IC50(initial) values and long T1/2 values.
For dissociation assay, compounds were dissolved in DMSO and then diluted in assay buffer (50 mM Tricine pH 8.0, 0.01(w/v)% Tween20, 10 mM CaCl2). 10 μL of compound solution was added in 96-well plate (corning), and then, 10 μL of 100 mU/mL human recombinant enteropeptidase (ITSI-Biosciences) solution was added into the plate and incubated at room temperature for 2 h. […] After incubation, 2 μL of the compound-enzyme mixture was transferred to a 96-well black plate (Corning) and 200 μL of substrate solution (3 μM 5FAM–Abu–[…]CPQ2)–Lys–Lys–NH2 (CPC Scientific)) was added into the well. By rapid dilution, the inhibitor concentration went to 10-fold below the IC50 from 10-fold above the IC50. The fluorescence was measured each 2 min at excitation wavelength 485 nm and emission wavelength 535 nm by EnVision (Perkin Elmer). The progress curves were fitted to following equation to determine the values for koff and dissociation half-life T1/2 according to the following equations. [drawing 4] 1 where t is time and F is fluorescence from initial rate vo to steady state rate vs. [drawing 5] 2

Series [12] can be described thus: Plasma exposure of 2a in mice (oral and subcutaneous). It counts as in vivo. As to conditions: male, mouse, read-out: AUC0-24h.
Series [13] can be described thus: Kinetic aqueous solubility at pH 1.2/6.8. It counts as physicochemical. As to conditions: aqueous medium, kinetic from dmso stock.
Where [14] appears, read: 6 min incubation of enzyme, read-out: Human enteropeptidase IC50(initial).
The mark [15] stands for this setting: 120 min incubation of enzyme, read-out: Human enteropeptidase IC50(app).

Where two headings read alike, the source gives them in different places. Bounds are passed on as bounds.

T1 sequence (P98073 whole entry): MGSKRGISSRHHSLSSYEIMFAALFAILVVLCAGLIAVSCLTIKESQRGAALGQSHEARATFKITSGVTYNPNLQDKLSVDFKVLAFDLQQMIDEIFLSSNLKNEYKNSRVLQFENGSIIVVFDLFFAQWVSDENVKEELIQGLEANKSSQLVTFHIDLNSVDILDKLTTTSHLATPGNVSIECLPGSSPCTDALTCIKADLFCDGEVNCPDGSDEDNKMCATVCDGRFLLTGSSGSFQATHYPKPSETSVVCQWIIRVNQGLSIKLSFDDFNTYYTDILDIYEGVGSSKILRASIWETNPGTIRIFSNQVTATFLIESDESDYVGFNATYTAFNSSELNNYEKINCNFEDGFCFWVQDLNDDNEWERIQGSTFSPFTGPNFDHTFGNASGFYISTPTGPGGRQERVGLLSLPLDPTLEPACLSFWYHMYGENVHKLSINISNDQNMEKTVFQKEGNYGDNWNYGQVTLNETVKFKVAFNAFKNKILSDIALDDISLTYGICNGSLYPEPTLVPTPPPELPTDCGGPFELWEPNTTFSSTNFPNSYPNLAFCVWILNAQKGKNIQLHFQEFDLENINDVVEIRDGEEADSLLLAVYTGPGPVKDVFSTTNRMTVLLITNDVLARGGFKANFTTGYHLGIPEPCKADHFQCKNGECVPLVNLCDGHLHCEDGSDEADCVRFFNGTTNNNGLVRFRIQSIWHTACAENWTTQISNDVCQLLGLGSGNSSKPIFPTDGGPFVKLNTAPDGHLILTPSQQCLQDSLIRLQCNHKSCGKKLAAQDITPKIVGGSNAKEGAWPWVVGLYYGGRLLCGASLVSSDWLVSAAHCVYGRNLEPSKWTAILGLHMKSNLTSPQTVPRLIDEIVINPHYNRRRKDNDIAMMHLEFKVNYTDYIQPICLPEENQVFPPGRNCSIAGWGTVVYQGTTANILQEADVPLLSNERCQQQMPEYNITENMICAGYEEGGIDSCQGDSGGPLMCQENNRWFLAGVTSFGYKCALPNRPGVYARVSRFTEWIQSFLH
Sequence of rat enteropeptidase (A0ABK0LTS6 829-1068): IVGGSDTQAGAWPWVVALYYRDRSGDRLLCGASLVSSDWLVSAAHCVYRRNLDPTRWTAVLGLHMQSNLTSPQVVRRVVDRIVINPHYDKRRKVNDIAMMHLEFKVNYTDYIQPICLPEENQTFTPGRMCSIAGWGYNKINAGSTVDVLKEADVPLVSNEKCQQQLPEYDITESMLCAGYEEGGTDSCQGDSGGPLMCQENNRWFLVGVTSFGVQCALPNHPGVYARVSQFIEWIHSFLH

The term IC50 denotes the concentration that inhibits the measured activity by half. For orientation: melting point means the temperature of the solid-liquid transition. As for `N=C(N)Nc1ccc(C(=O)Oc2cccc(C3=NO[C@](CC(=O)O)(C(=O)O)C3)c2)cc1` [6b, (5R)-3-{3-[(4-Carbamimidamidobenzoyl)oxy]phenyl}-5-(carboxymethyl)-4,5-dihydro-1,2-oxazole-5-carboxylic Acid], the melting point was 199 °C (dec.). The IC50 in [1] (setting [14]) came to 20 nM. The IC50 in [1] (setting [15]) was 1.2 nM. Also, in series [2] (120 min, supplement csv, unit inferred, read-out: rat enteropeptidase IC50 (120 min)), the IC50 stood at 1.5 nM. Moreover, in series [3], the “stability at pH 1.2 (% decomposed)” value is on record as 1.1 % decomposed and the “stability at pH 6.8 (% decomposed)” value came out at 7.3 % decomposed. In addition, in [4], the body weight change entry was “potent body weight loss in a dose-dependent manner”, the food intake result is “significant reduction” and the fecal protein output result is given as “significant increase”. Further, the “MDR1 (A to B)” value in [5] came out at 0 nm/s. The “PK in rats, plasma concentration” value in [6] (1 mg/kg p.o., below the lower limit of quantitation) was less than 1 ng/mL. The “fecal protein output (fold of 2a)” value in series [7] (10 mg/kg) is 1.29 fold of 2a.
As for `CN(C)C(=O)COC(=O)Cc1ccc(OC(=O)c2ccc(NC(=N)N)cc2)cc1` [camostat], the enteropeptidase activity entry in series [8] is “inhibited enteropeptidase activity”. Moreover, in [9], the body weight entry is “induced body weight loss”.
The term solubility (kinetic) denotes the concentration staying in solution when a stock, usually in DMSO, is diluted into the medium. Turning to `Cl.N=C(N)Nc1ccc(C(=O)Oc2ccc(CC(=O)N[C@@H](CC(=O)O)C(=O)O)cc2)cc1` [2a, N-({4-[(4-Carbamimidamidobenzoyl)oxy]phenyl}acetyl)-L-aspartic Acid Hydrochloride], the “fold enhancement in IC50(initial) relative to 1c” value in [1] (6 min, glycine replaced with aspartic acid) was “five-fold”. The results for the IC50 in series [1] (setting [14]) and in [1] (setting [15]) were 94 nM and 5.9 nM, respectively. The Papp worked out at 0.2 ×10⁻⁶ cm/s in [10] (pH 7.4, read-out: PAMPA at pH 7.4) and 0.1 ×10⁻⁶ cm/s in series [10] (pH 5.0, read-out: PAMPA at pH 5.0). In addition, the “T1/2, half-time of dissociation from human enteropeptidase” value in [11] was greater than 2 h. For the same molecule, in [3], the “stability at pH 1.2 (% decomposed)” value was determined as 2.5 % decomposed. In series [3], the “stability at pH 6.8 (% decomposed)” value is 5.0 % decomposed. The AUC(0-t) at 24 h in series [12] (oral, 60 mg/kg) came to 9820 ± 3740 ng·h/mL; in series [12] (sc, subcutaneous, 10 mg/kg) it was 16000 ± 2640 ng·h/mL. For the same molecule, in [5], the “MDR1 (A to B)” value is 0 nm/s. Further, the solubility (kinetic) in [13] (pH 1.2, simulated gastric fluid, read-out: Kinetic aqueous solubility at pH 1.2) is 76 µg/mL; in series [13] (pH 6.8, aqueous buffer, read-out: Kinetic aqueous solubility at pH 6.8) it was greater than 97 µg/mL. Also, the “fecal protein output (fold of 2a)” value in series [7] (10 mg/kg) is on record as “(1.00) fold of 2a”. Further, the “fecal protein content vs vehicle” value in series [7] (oral administration, 60 mg/kg) is reported as “significant increase”. Besides, the “fecal protein levels vs vehicle” value in series [7] (subcutaneous administration, 10 mg/kg) is “did not increase”.
For `N=C(N)Nc1ccc(C(=O)Oc2ccc3c(c2)OC[C@H]3CC(=O)N[C@@H](CC(=O)O)C(=O)O)cc1.O` [(S)-5b, N-({(3S)-6-[(4-Carbamimidamidobenzoyl)oxy]-2,3-dihydro-1-benzofuran-3-yl}acetyl)-L-aspartic Acid Hydrate], the 50% inhibitory concentration (IC50) in [1] (setting [14]) stood at 68 nM. Also, in series [2], half-maximal inhibition (IC50) required 4.6 nM. In series [3], the “stability at pH 1.2 (% decomposed)” value is listed as 0.2 % decomposed and the “stability at pH 6.8 (% decomposed)” value is 4.4 % decomposed. In series [4], the body weight change entry was “body weight loss”, the food intake entry was “reduction” and the fecal protein output result is “significant elevation”. Moreover, the “MDR1 (A to B)” value in [5] came out at 0 nm/s. Besides, the “PK in rats BA” value in series [6] (10 mg/kg p.o. and 0.2 mg/kg i.v.) came out at 0.4%. Further, the body weight entry in [9] was “potent body weight reduction”. Besides, the “fecal protein output (fold of 2a)” value in series [7] (10 mg/kg) is listed as 1.28 fold of 2a.

These data come from publication PMC9234964, “Design, Synthesis, and Biological Evaluation of a Novel Series of 4-Guanidinobenzoate Derivatives as Enteropeptidase Inhibitors with Low Systemic Exposure for the Treatment of Obesity” (Journal of Medicinal Chemistry, 2022).
